# Assay results from patent US20180221296A1, “INTRASITE ADMINISTRATION AND DOSING METHODS AND PHARMACEUTICALS FOR USE THEREIN” (HKL Medical, LLC, priority 2017, published 2018).
# Where two headings read alike, the source gives them in different places.
# How the values were obtained:
# [1] = tested on: Vancomycin-Resistant Staphylococcus aureus (VRSA); settings: certain strains of VRSA; cited from earlier work
# [2] = Intrasite vancomycin pharmacodynamics trial: adverse reactions; type: in vivo, human; settings: IS dose 2 mg/cm^2, spinal surgery patients
# Description: (§1) Intrasite Vancomycin Pharmacodynamics Trial.
# Adverse Reactions to IS Vancomycin. […] There was one example of a post-operative gram-negative bacterial surgical site infection which could not have been prevented by vancomycin because its spectrum of antimicrobial effects dies not cover this organism.
# [3] = Intrasite vancomycin pharmacodynamics trial: systemic circulation serum vancomycin concentration; type: in vivo, human; settings: all measured time-points, single IS dose (2 mg/cm^2; moderate doses); detectability limit printed >1.7 μg/ml
# Procedure: as §1
# Intrasite Dosing of Vancomycin.
# Systemic Circulation Serum Vancomycin Concentrations after IS Dose. In all of the 10 patients of the 2 mg/cm^2 dose cohort serum vancomycin levels remained undetectable at all measured time-points after a single IS dose. Detectability limit in these experiments was >1.7 μg/ml. This is interpreted as a strong indicator of safety with regard to systemic side effects and toxicities as well as evidence of a very wide therapeutic index when vancomycin is administered IS. This strongly contrasts to the higher probability of systemic toxicity and narrow therapeutic index when vancomycin is administered IV.
# [4] = Intrasite vancomycin pharmacodynamics trial: wound seroma vancomycin levels via wound drain
# Procedure: Intrasite Vancomycin Pharmacodynamics Trial. A single dose cohort pharmacodynamics trial was performed under FDA IND# 117494, the first FDA IND awarded for intrasite vancomycin. This dose cohort involved administration of a low dose of intrasite lyophilized vancomycin into complex instrumented spinal surgery wounds in adult patients. At multiple specific time points after surgery measurements were taken of vancomycin and […] levels in the blood stream and from the wound seroma fluid (via the wound drain). Measurements of endotoxin levels within the blood stream and seroma fluid were also taken at the same time points following surgery. All personnel present during administration of IS vancomycin were required to wear a certified fit N-90 mask to prevent inhalation of aerosolized vancomycin powder, which is a known safety risk for pulmonary fibrosis.
# Intrasite Dosing of Vancomycin. Intrasite dosing was based on the surface area of the wound (tissues within the spinal wound lying deep to the skin). Wound surface area was estimated by a wound Length×Depth×2 calculation where length and mean depth were measured directed by the surgeon after surgical opening of the wound was completed. To assure safety, the maximum IS dose of vancomycin given to patients in this cohort was limited to well below the normal maximum safe IV dose of 2.5 g. Given that maximum wound surface areas created in spinal deformity patients are on the order of 1000 cm^2, a surface area dose of 2 mg/cm^2 provides for a maximum single dose of ˜2 g IS vancomycin, considered safe even if the entire dose absorbed into the circulation. To improve the homogeneity of IS dose application one third of the total calculated dose was delivered to the subepidermal tissues of the wound, superficial to the perimuscular fascia, one third of the total dose was applied to the subfascial muscle, bone, and other tissues, and one third of the total dose was milled with the bone graft before implantation.
# Wound Vancomycin Levels Following a Single Intrasite Dose. Wound seroma vancomycin levels were measured via the wound drain at multiple time points for 4 days after a single intrasite dose given at the conclusion of surgery. […] However, vancomycin is a time-dependent killer of microbes and levels must exceed kill concentrations for up to 48 hrs to be completely effective.
# [5] = in vivo; cited from earlier work
# [6] = cited from earlier work
# [7] = measured at 2 hrs after single IS dose 2 mg/cm^2, 10 patients
# [8] = single IS dose 2 mg/cm^2, 10 patients
# [9] = within the first 48 hrs after single IS dose 2 mg/cm^2, 10 patients
structure (smiles),measurement,setting,value
CN[C@H](CC(C)C)C(=O)N[C@H]1C(=O)N[C@@H](CC(N)=O)C(=O)N[C@H]2C(=O)N[C@H]3C(=O)N[C@H](C(=O)N[C@H](C(=O)O)c4cc(O)cc(O)c4-c4cc3ccc4O)[C@H](O)c3ccc(c(Cl)c3)Oc3cc2cc(c3O[C@@H]2O[C@H](CO)[C@@H](O)[C@H](O)[C@H]2O[C@H]2C[C@](C)(N)[C@H](O)[C@H](C)O2)Oc2ccc(cc2Cl)[C@H]1O [vancomycin],minimum 90% bactericidal concentration (MBC^90),[1],64 µg/mL
same,adverse reactions related to IS vancomycin,[2],no patient- or practitioner-identified adverse reactions
same,serum vancomycin level after IS dose,[3],undetectable
same,"highest vancomycin concentration, subfascial wound compartment",[4]; [7],952 µg/mL
same,"highest vancomycin concentration, suprafascial wound compartment",[4]; [7],6110 µg/mL
same,time vancomycin remains in high enough wound concentration for efficient suppression of gram-positive microorganisms,"[4]; moderate IS doses, also with seroma fluid removed via drains, preliminary evidence",at least 4 days
same,time mean subfascial vancomycin concentration exceeds threshold to kill VRSA (128 μg/ml),[4]; [8],less than 24 hrs
same,time mean suprafascial vancomycin concentration exceeds threshold to kill VRSA (128 μg/ml),[4]; [8],more than 48 hrs
same,"lowest vancomycin concentration, subfascial wound compartment",[4]; [9],4.1 µg/mL
same,"lowest vancomycin concentration, suprafascial wound compartment",[4]; [9],16.2 µg/mL
"NC[C@H]1CC[C@H](C(=O)O)CC1 [TXA, trans-4-[aminomethyl]cyclohexanecarboxylic acid]",half-life in the blood stream,[5],approximately 2 hrs
same,oral bioavailability,[6]; oral,34%
CO[C@H]1/C=C/O[C@@]2(C)Oc3c(C)c(O)c4c(O)c(c5c(nc6cc(C)ccn65)c4c3C2=O)NC(=O)/C(C)=C\C=C\[C@H](C)[C@H](O)[C@@H](C)[C@@H](O)[C@@H](C)[C@H](OC(C)=O)[C@@H]1C [Rifaximin],oral bioavailability,"[6]; in vivo, po",< 0.4%
